Laboratory results taken from patent US20180186823A1, “PLATINUM COMPOUNDS, COMPOSITIONS, AND USES THEREOF” (PLACON THERAPEUTICS, INC., priority 2015, published 2018).
Like-named read-outs stand apart in the source and are kept apart here. Each block holds one molecule with its values, some of them ahead of it.

Legend:
[1] = Tumor platinum levels (ICP-MS) in H460 tumor-bearing nude mice; assay type: in vivo, mouse
Experimental: To examine the ability of compounds disclosed herein to accumulate in tumors, a murine cancer model was used. Animals were inoculated with 5×10^5 H460 […] lung cancer cells via subcutaneous injection to the flank. Tumors were allowed to reach an approximate volume of ˜500 mm^3. Animals were then randomized into treatment groups of 3 animals per time point and were dosed at 4 mg/kg. The 24-hour time point was used as a benchmark across compounds.
Tumor platinum levels were determined by inductively coupled plasma mass spectrometry (ICP-MS). Tumors were excised from animals and dissolved in fuming nitric acid (60% w/w) by adding four parts nitric acid to 1 part tumor w/w and heating overnight at 60° C. The resulting digest was diluted 1:10 in ICP-MS analysis buffer (1% nitric acid, 2% Triton® X-100), and directly introduced into the ICP-MS unit by peristaltic pump. The end dilution factor for the samples as introduced to the ICP-MS was 50×.

A2780 ovarian xenografts = assay: Tumor growth inhibition in A2780 ovarian xenografts in nude mice; assay type: in vivo, mouse; details: for TGI % compared to cisplatin and oxaliplatin (FIG. 17): in vivo screen, A2780 model; for TGI %: dose not given
From the text: (§1) Tumor measurements were taken twice weekly, using vernier calipers.

Calu-6 NSCLC xenografts = assay: Tumor growth inhibition in Calu-6 NSCLC xenografts in nude mice; assay type: in vivo, mouse; details: dose not given
From the text: as §1

[2] = test system: MX-1 human breast cancer xenograft; assay type: in vivo, mouse; details: for % T/C (mean tumor volume) / % T/C (median tumor volume) / Mean tumor volume / Median tumor volume: days 1, 5, 8, 12
From the text: MX-1 cell line is estrogen receptor negative and Her2 normal. It is generic and BRCA1 and BRCA2 mutant: BRCA1 truncating mutation (3363delGAAA) and BRCA2 mutations (16864A>C, Asn289His, and 22184A>G, Asn991Asp). Average tumor volumes and platinum levels in the tumors were shown in FIG. 29 and Table 9. % T/C in Table 9 is the tumor to control ratio, i.e., the size of tumor divided by the size of tumor control. The lower % T/C is, the higher TGI % is.

NCI-H520 = assay: Multiple-dose efficacy study in lung cancer (NSCLC) model NCI-H520; assay type: in vivo; details: 15 mg/kg
Experimental: Tumor volumes and platinum levels were tracked over a course of 32 days after treatment of multiple doses of compound 8 (dosed at days 0, 3, 7 and 10) in lung cancer (NSCLC) model NCI-H520. Compound 8 was dosed at 15 mg/kg.
Cell dedifferentiation and apoptosis were studied with immunohistochemical (IHC) and TUNEL stainings.

Rat toxicology study = assay type: in vivo
H460 cells = assay: In vitro inhibition of cell proliferation (CellTiter-Glo); assay type: cell-based, human; details: 48 hours treatment; starting dose 20 uM, three-fold dilutions
Experimental: Human cancer cell lines were plated in 96 well plates (Costar) and 24 hours later were treated with a compound for 48-72 hours. Specifically, H460 cells (ATCC) were plated at a concentration of 1,500 cells per well and compound treatment was carried out for 48 hours. Compound starting dose was 20 uM and three-fold serial dilutions were done for a total of ten points. Inhibition of cell proliferation was measured using CellTiter-Glo® reagent using the standard protocol (Promega) and a Glomax® multi+detection system (Promega). Percent proliferation inhibition was calculated using the following formula: % inhibition=(control-treatment)/control*100. Control is defined as vehicle alone. IC50 curves were generated using the nonlinear regression analysis (four parameter) with GraphPad Prism 6.

[3] = nude, mouse, in vivo, 4 mg/kg, 24 h
[4] = H460 tumors, dosed at 4 mg/kg, 24-hour time point
[5] = Table 6 study, Calu-6 xenografts
[6] = Table 5 study, A2780 xenografts

Molecule: CC(=O)[O][Pt]([NH2])([NH2])([Cl])([Cl])[O]C(=O)CCCCCN1C(=O)C=CC1=O [Compound 11]
Platinum in tumor (mM/mmole/kg platinum dosed) [1, 3]: 0.68 mM/mmole/kg platinum dosed
TGI % compared to cisplatin and oxaliplatin (FIG. 17) (A2780 ovarian xenografts): superior TGI % to cisplatin and oxaliplatin

Molecule: O=C1[O][Pt]2([NH][C@@H]3CCCC[C@H]3[NH]2)[O]C1=O [Oxaliplatin]
Platinum in tumor (mM/mmole/kg platinum dosed) [1, 4]: 0.12 mM/mmole/kg platinum dosed
TGI % (Calu-6 NSCLC xenografts; Table 4 study, comparators): 56.7%
TGI % (Calu-6 NSCLC xenografts; [5]): 21.19%
TGI % (A2780 ovarian xenografts; Table 2 study, comparators): 45.9%
TGI % (A2780 ovarian xenografts; Table 3 study, comparators): 40.1%
TGI % (A2780 ovarian xenografts; [6]): 43.75%

Molecule: CC(=O)[O][Pt]([NH2])([NH2])([Cl])([Cl])[O]C(=O)NCCCCCN1C(=O)C=CC1=O [Compound 8]
Platinum in tumor (mM/mmole/kg platinum dosed) [1, 3]: 0.51 mM/mmole/kg platinum dosed
tumor outcome at day 15 (in words) ([2]; day 15): Tumor disappeared
tumor growth inhibition versus cisplatin (NCI-H520; days 0, 3, 7 and 10, cisplatin 3 mg/kg, 32 days): superior tumor growth inhibition than cisplatin
apoptosis and dedifferentiation in tumors (IHC, TUNEL) (NCI-H520; images from day 10): significant and sustained increase in apoptosis and dedifferentiation
kidney toxicity (blood markers and histopathology) compared to cisplatin (Rat toxicology study; at a higher dose of platinum): improvement in kidney toxicity compared to cisplatin
other histopathology findings (Rat toxicology study; rat, in vivo): No other histopathology findings
TGI % compared to cisplatin and oxaliplatin (FIG. 17) (A2780 ovarian xenografts): superior TGI % to cisplatin and oxaliplatin

Molecule: N.N.[Cl][Pt][Cl] [Cisplatin]
Platinum in tumor (mM/mmole/kg platinum dosed) [1, 4]: 0.27 mM/mmole/kg platinum dosed
% T/C (mean tumor volume) ([2]; Day 1, 3 mg/kg): 100.6%
% T/C (median tumor volume) ([2]; Day 1, 3 mg/kg): 105.5%
Mean tumor volume ([2]; Day 1, 3 mg/kg): 153.6 mm^3
Median tumor volume ([2]; Day 1, 3 mg/kg): 155.2 mm^3
% T/C (mean tumor volume) ([2]; Day 5, 3 mg/kg): 96.2%
% T/C (median tumor volume) ([2]; Day 5, 3 mg/kg): 107.3%
Mean tumor volume ([2]; Day 5, 3 mg/kg): 343.7 mm^3
Median tumor volume ([2]; Day 5, 3 mg/kg): 350.2 mm^3
% T/C (mean tumor volume) ([2]; Day 8, 3 mg/kg): 39.3%
% T/C (median tumor volume) ([2]; Day 8, 3 mg/kg): 42.9%
Mean tumor volume ([2]; Day 8, 3 mg/kg): 251.2 mm^3
Median tumor volume ([2]; Day 8, 3 mg/kg): 266.3 mm^3
% T/C (mean tumor volume) ([2]; Day 12, 3 mg/kg): 4.9%
% T/C (median tumor volume) ([2]; Day 12, 3 mg/kg): 5.4%
Mean tumor volume ([2]; Day 12, 3 mg/kg): 57.6 mm^3
Median tumor volume ([2]; Day 12, 3 mg/kg): 57.6 mm^3
TGI % Day 15 ([2]; Day 15, 3 mg/kg): 98.6%
% T/C (mean tumor volume) ([2]; Day 15, 3 mg/kg): 1.4%
% T/C (median tumor volume) ([2]; Day 15, 3 mg/kg): 1.5%
Mean tumor volume ([2]; Day 15, 3 mg/kg): 26.7 mm^3
Median tumor volume ([2]; Day 15, 3 mg/kg): 29.7 mm^3
TGI % (Calu-6 NSCLC xenografts; Table 4 study, comparators): 91.4%
TGI % (Calu-6 NSCLC xenografts; [5]): 94.57%
IC50 (H460 cells): 2000 nM
TGI % (A2780 ovarian xenografts; Table 2 study, comparators): 54.5%
TGI % (A2780 ovarian xenografts; Table 3 study, comparators): 44.2%
TGI % (A2780 ovarian xenografts; [6]): 53.04%

Platinum in tumor (mM/mmole/kg platinum dosed) [1, 3]: 0.51 mM/mmole/kg platinum dosed
Molecule: CCNC(=O)[O][Pt]([NH2])([NH2])([Cl])([Cl])[O]C(=O)CCCCCN1C(=O)C=CC1=O [Compound 7]

Molecule: acetate 6-(2,5-dioxo-2H-pyrrol-1(5H)-yl) hexanoate oxaliplatin [Compound 1]
Platinum in tumor (mM/mmole/kg platinum dosed) [1, 4]: 0.57 mM/mmole/kg platinum dosed
TGI % compared to cisplatin and oxaliplatin (FIG. 17) (A2780 ovarian xenografts): superior TGI % to cisplatin and oxaliplatin

Platinum in tumor (mM/mmole/kg platinum dosed) [1, 3]: 0.53 mM/mmole/kg platinum dosed
Molecule: COCC(=O)[O][Pt]([NH2])([NH2])([Cl])([Cl])[O]C(=O)CCCCCN1C(=O)C=CC1=O [Compound 9]
